The results in this text go back to ChEMBL document CHEMBL1146803, “Structure activity studies of ring E analogues of methyllycaconitine. Part 2: Synthesis of antagonists to the alpha3beta4* nicotinic acetylcholine receptors through modifications to the ester” (Bioorg Med Chem Lett, 2004).

T1 sequence (P30926 whole entry): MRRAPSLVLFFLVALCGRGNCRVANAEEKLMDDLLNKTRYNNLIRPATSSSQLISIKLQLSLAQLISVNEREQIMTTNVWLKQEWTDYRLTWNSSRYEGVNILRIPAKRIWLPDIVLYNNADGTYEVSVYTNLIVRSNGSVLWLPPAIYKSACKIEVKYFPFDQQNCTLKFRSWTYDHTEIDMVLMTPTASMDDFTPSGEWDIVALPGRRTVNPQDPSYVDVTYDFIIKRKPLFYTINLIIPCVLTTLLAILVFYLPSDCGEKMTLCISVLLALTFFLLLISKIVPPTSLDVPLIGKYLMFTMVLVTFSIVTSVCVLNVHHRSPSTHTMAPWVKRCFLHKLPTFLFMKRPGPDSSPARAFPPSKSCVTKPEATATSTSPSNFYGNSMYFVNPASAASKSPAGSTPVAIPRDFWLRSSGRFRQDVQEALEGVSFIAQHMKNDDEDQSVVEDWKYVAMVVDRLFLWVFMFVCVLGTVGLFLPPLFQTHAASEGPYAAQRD
T1 sequence (P32297 whole entry): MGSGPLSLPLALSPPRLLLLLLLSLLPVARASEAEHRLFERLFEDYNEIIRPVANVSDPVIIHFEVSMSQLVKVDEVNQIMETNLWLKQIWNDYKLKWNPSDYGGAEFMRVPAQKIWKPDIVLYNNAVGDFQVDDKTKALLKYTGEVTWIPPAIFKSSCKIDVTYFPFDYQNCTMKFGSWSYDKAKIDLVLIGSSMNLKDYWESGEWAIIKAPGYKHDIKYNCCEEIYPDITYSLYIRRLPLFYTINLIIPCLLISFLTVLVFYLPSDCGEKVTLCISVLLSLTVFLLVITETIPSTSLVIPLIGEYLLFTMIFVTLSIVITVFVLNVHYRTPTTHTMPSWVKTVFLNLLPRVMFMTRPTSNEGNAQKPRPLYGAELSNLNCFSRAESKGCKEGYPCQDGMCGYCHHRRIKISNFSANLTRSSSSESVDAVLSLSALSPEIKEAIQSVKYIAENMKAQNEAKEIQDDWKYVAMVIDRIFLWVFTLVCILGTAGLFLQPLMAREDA
Neuronal acetylcholine receptor subunit alpha-3, sequence (P32297 whole entry): as above

The first experiment has as its target T1, Neuronal acetylcholine receptor; alpha3/beta4 (Homo sapiens, UniProt P30926+P32297). The experiment can be described thus: Effect on alpha3-beta4 neuronal nicotinic acetylcholine receptor-stimulated adrenal catecholamine secretion. Type of experiment: functional.
The compound `O=C(OCC1CCCN(CCCc2ccccc2)C1)c1ccccc1F` (centres undefined) showed a 50% inhibitory concentration (IC50) of 5200 nM.

`CCC1CC(=O)N(c2ccccc2C(=O)OCC2CCCN(CCCc3ccccc3)C2)C1=O` (centres undefined) yielded an IC50 of 4500 nM.

In turn, `O=C(OCC1CCCN(CCCc2ccccc2)C1)c1ccc(-c2ccccc2)cc1` (centres undefined) showed an IC50 of 3000 nM.

Compound `CCCCC1CC(=O)N(c2ccccc2C(=O)OCC2CCCN(CCCc3ccccc3)C2)C1=O` (centres undefined) registered an IC50 of 1500 nM.

`CC1(C)CC(=O)N(c2ccccc2C(=O)OCC2CCCN(CCCc3ccccc3)C2)C1=O` (centres undefined) had an IC50 of 7500 nM. Against the preceding compound, the IC50 is about 5-fold higher.

In turn, `CC1C(=O)N(c2ccccc2C(=O)OCC2CCCN(CCCc3ccccc3)C2)C(=O)C1C` (centres undefined) registered a concentration for half-maximal inhibition (IC50) of 6000 nM.

For the compound `O=C(OCC1CCCN(CCCc2ccccc2)C1)c1ccccc1N1C(=O)c2ccccc2C1=O` (centres undefined), half-maximal inhibition (IC50) required 1300 nM.

The compound `O=C(OCC1CCCN(CCCc2ccccc2)C1)c1ccccc1-c1ccccc1` (centres undefined) had an IC50 of 1700 nM.

Consider `O=C(OCC1CCCN(CCCc2ccccc2)C1)c1ccccc1C(F)(F)F` (centres undefined), for which the half-maximal inhibitory concentration (IC50) is 3200 nM.

Turning to `CCCCCCCCC1CC(=O)N(c2ccccc2C(=O)OCC2CCCN(CCCc3ccccc3)C2)C1=O` (centres undefined), half-maximal inhibition (IC50) required 1300 nM.

For the compound `CC1CC(=O)N(c2ccccc2C(=O)OCC2CCCN(CCc3ccccc3)C2)C1=O` (centres undefined), the IC50 was 11400 nM.

`O=C(OCC1CCCN(CCCc2ccccc2)C1)c1ccccc1N1C(=O)CC(C2CCCC2)C1=O` (centres undefined) registered an IC50 of 1200 nM.

The compound `C=CCC1CC(=O)N(c2ccccc2C(=O)OCC2CCCN(CCCc3ccccc3)C2)C1=O` (centres undefined) displayed an IC50 of 1700 nM.

Consider `CC(C)C1CC(=O)N(c2ccccc2C(=O)OCC2CCCN(CCCc3ccccc3)C2)C1=O` (centres undefined), for which the IC50 was 2500 nM.

`O=C(OCC1CCCN(CCCc2ccccc2)C1)c1ccccc1N1C(=O)CC(Cc2ccccc2)C1=O` (centres undefined): the 50% inhibitory concentration (IC50) was 1300 nM.

In turn, `CC(=O)Nc1ccccc1C(=O)OCC1CCCN(CCCc2ccccc2)C1` (centres undefined) showed an IC50 of 8400 nM. Compared with the last compound, the IC50 is about 6.5-fold higher.

On to `COc1ccccc1C(=O)OCC1CCCN(CCCc2ccccc2)C1` (centres undefined), for which the half-maximal inhibitory concentration (IC50) worked out at 3200 nM. This IC50 is about 2.6-fold lower than that of the compound before.

With `CCN1C[C@]2(COC(=O)c3ccccc3N3C(=O)C[C@H](C)C3=O)CC[C@H](OC)[C@@]34[C@@H]5C[C@H]6[C@H](OC)[C@@H]5[C@](O)(C[C@@H]6OC)[C@](O)([C@@H](OC)[C@H]23)[C@@H]14` [METHYLLYCACONITINE], the IC50 was found to be 2600 nM.

The next experiment has as its target T1, Neuronal acetylcholine receptor; alpha3/beta4. The experiment can be described thus: Inhibitory activity against nicotinic acetylcholine receptor alpha3-beta4. Type of experiment: protein-complex assay.
Take `COc1cc2c3cc1Oc1cc(ccc1O)C[C@@H]1c4c(cc(OC)c(O)c4Oc4ccc(cc4)C[C@@H]3N(C)CC2)CC[N+]1(C)C`: half-maximal inhibition (IC50) required 2000 nM.

Regarding `C[N+](C)(C)CCCCCCCCCC[N+](C)(C)C` [DECAMETHONIUM], the IC50 is roughly 1700 nM.

For the compound `C[N+](C)(C)CCCCCC[N+](C)(C)C` [HEXAMETHONIUM HYDROXIDE], the concentration for half-maximal inhibition (IC50) was roughly 1700 nM.

The target of the next experiment is Neuronal acetylcholine receptor subunit alpha-7 (Homo sapiens, UniProt P36544). The experiment in a line: Affinity for nicotinic acetylcholine receptor alpha7.
Neuronal acetylcholine receptor subunit alpha-7, sequence (P36544 whole entry): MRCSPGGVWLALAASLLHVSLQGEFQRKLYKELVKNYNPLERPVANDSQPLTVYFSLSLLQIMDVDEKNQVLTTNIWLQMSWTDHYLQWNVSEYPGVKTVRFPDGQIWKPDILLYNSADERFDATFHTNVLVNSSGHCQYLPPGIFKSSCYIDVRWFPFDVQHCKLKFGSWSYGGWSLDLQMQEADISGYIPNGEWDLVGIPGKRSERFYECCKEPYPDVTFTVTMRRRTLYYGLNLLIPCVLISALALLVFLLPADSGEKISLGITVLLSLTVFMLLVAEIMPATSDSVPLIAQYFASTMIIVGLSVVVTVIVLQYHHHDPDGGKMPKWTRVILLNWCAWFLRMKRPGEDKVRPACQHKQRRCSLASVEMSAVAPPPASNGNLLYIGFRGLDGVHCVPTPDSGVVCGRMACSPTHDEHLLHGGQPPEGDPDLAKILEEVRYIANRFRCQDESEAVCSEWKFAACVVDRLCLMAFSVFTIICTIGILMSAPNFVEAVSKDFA
`CC1CC(=O)N(c2ccccc2C(=O)OCC2CCCN(CCc3ccccc3)C2)C1=O` (centres undefined) returned an IC50 of 177000 nM.

A further experiment has as its target Neuronal acetylcholine receptor subunit alpha-3 (Homo sapiens, UniProt P32297). The experiment in a line: Inhibitory activity on nicotinic acetylcholine receptor alpha3.
Compound `CC1CC(=O)N(c2ccccc2C(=O)OCC2CCCN(C(C)C)C2)C1=O` (centres undefined) displayed an IC50 of roughly 20000 nM.

For the compound `CC(C)N1CCCC(COC(=O)c2ccccc2N2C(=O)CCC2=O)C1` (centres undefined), the half-inhibitory concentration (IC50) was roughly 20000 nM.
